Measured values taken from US7714135B2, “Tetrahydropyridothiophenes for the treatment of proliferative diseases such as cancer” (4SC AG, priority 2005, dated 2010).

Tests used:
[1] = tested on: RKO colon adenocarcinoma cells (RKOp27) arrested by the expression of ectopic p27Kip1; assay: Alamar Blue cell viability assay on RKOp27 cells arrested by Ponasterone A-induced p27Kip1 expression (cell cycle specific mode of action); type: cell-based; conditions: Homo sapiens, RKOp27 subclone induced with 10 μM Ponasterone A, 72 hours incubation, read-out: IC50 RKO p27 induced (arrested)
Procedure: To determine the cell cycle specific mode of action, subclones of RKO colon adenocarcinoma cells (RKOp27 or RKOp21 as described by Schmidt et al. in Oncogene 19, 2423-2429; 2000) are seeded into 96 well flat bottom plates at a density of 16000 cells per well in a volume of 50 μl per well in DMEM growth medium with 10% FCS containing 10 μM Ponasterone A. 24 hours after seeding the 50 μl each of the compound dilutions in DMEM medium are added into each well of the 96 Well plate. Each compound dilution is tested as quadruplicates. Wells containing untreated control cells are filled with 50 μl DMEM medium containing 1% DMSO. The cells are then incubated with the substances for 72 hours at 37° C. in a humidified atmosphere containing 5% carbon dioxide. To determine the viability of the cells, 10 μl of an Alamar Blue solution (Biosource) are added and the fluorescence was measured at an extinction of 544 nm and an emission of 590 nm. For the calculation of the cell viability the emission value from untreated cells is set as 100% viability and the emission rates of treated cells are set in relation to the values of untreated cells. Viabilities are expressed as % values. Viability is compared of proliferating cells grown in the absence of the inducer Ponasterone A, versus viability of cells arrested by the expression of ectopic p27Kip1 induced by Ponasterone A.

[2] = tested on: RKO (RKOp27) human colon adenocarcinoma cells; assay: Alamar Blue cell viability assay, anti-proliferative/cytotoxic activity on proliferating (uninduced) RKOp27 cells; type: cell-based; conditions: RKOp27 subclone without inducer, 72 hours incubation, read-out: IC50 RKO p27 uninduced (proliferating)
Procedure: The anti-proliferative/cytotoxic activity of the compounds described herein, can be tested on subclones of RKO (RKOp27) human colon adenocarcinoma cells (Schmidt et al., Oncogene 19, 2423-2429; 2000) using the Alamar Blue cell viability assay (described in O'Brien et al. Eur J Biochem 267, 5421-5426, 2000). The compounds are dissolved as 20 mM solutions in dimethylsulfoxide (DMSO) and subsequently diluted in semi-logarithmic steps. DMSO dilutions are further diluted 1:100 into Dulbecco's modified Eagle's medium (DMEM) containing 10% fetal calf serum to a final concentration twice as much as the final concentration in the test. RKO subclones are seeded into 96 well flat bottom plates at a density of 4000 cells per well in a volume of 50 μl per well. 24 hours after seeding the 50 μl each of the compound dilutions in DMEM medium are added into each well of the 96 Well plate. Each compound dilution is tested as quadruplicates. Wells containing untreated control cells are filled with 50 μl DMEM medium containing 1% DMSO. The cells are then incubated with the substances for 72 hours at 37° C. in a humidified atmosphere containing 5% carbon dioxide. To determine the viability of the cells, 10 μl of an Alamar Blue solution (Biosource) are added and the fluorescence is measured at an extinction of 544 nm and an emission of 590 nm. For the calculation of the cell viability the emission value from untreated cells is set as 100% viability and the emission rates of treated cells are set in relation to the values of untreated cells. Viabilities are expressed as % values.
The corresponding IC50 values of the compounds for anti-proliferative/cytotoxic activity are determined from the concentration-effect curves.
Representative IC50 values for anti-proliferation/cytotoxicity determined in the mentioned assay follow from the following table A, in which the numbers of the compound correspond to the numbers of the examples.

| Structure (SMILES) | IC50 [1] | IC50 [2] |
| --- | --- | --- |
| CC(C)(C)OC(=O)N1CCc2c(sc(NC(=O)CCc3ccccc3)c2C#N)C1 [Example 22, 3-Cyano-2-(3-phenyl-propanoylamino)-4,7-dihydro-5H-thieno[2,3-c]pyridine-6-carboxylic acid tert-butyl ester] | > 100 µM | ≤ 300 nM |
| CCOC(=O)N1CCc2c(sc(NC(=O)CCc3ccccc3Br)c2C#N)C1 [Example 23, 2-[3-(2-Bromo-phenyl)-propanoylamino]-3-cyano-4,7-dihydro-5H-thieno[2,3-c]pyridine-6-carboxylic acid ethyl ester] | > 100 µM | ≤ 300 nM |
| COCCOC(=O)N1CCc2c(sc(NC(=O)CCc3ccccc3)c2C#N)C1 [Example 24, 3-Cyano-2-(3-phenyl-propanoylamino)-4,7-dihydro-5H-thieno[2,3-c]pyridine-6-carboxylic acid 2-methoxy-ethyl ester] | > 100 µM | ≤ 300 nM |
| N#Cc1c(NC(=O)CCc2ccccc2)sc2c1CCN(C(=O)OCCc1ccccn1)C2 [Example 26, 3-Cyano-2-(3-phenyl-propanoylamino)-4,7-dihydro-5H-thieno[2,3-c]pyridine-6-carboxylic acid 2-pyridin-2-yl-ethyl ester] | > 100 µM | ≤ 300 nM |
| N#Cc1c(NC(=O)CCc2ccccc2)sc2c1CCN(C(=O)OCc1ccccn1)C2 [Example 27, 3-Cyano-2-(3-phenyl-propanoylamino)-4,7-dihydro-5H-thieno[2,3-c]pyridine-6-carboxylic acid pyridin-2-ylmethyl ester] | > 100 µM | ≤ 300 nM |
| N#Cc1c(NC(=O)CCc2ccccc2)sc2c1CCN(C(=O)OCc1cccnc1)C2 [Example 28, 3-Cyano-2-(3-phenyl-propanoylamino)-4,7-dihydro-5H-thieno[2,3-c]pyridine-6-carboxylic acid pyridin-3-ylmethyl ester] | > 100 µM | ≤ 300 nM |
| N#Cc1c(NC(=O)CCc2ccccc2)sc2c1CCN(C(=O)OCc1ccncc1)C2 [Example 29, 3-Cyano-2-(3-phenyl-propanoylamino)-4,7-dihydro-5H-thieno[2,3-c]pyridine-6-carboxylic acid pyridin-4-ylmethyl ester] | > 100 µM | ≤ 300 nM |
| CC1(C)OCC(COC(=O)N2CCc3c(sc(NC(=O)CCc4ccccc4)c3C#N)C2)O1 (stereo not drawn) [Example 30, 3-Cyano-2-(3-phenyl-propanoylamino)-4,7-dihydro-5H-thieno[2,3-c]pyridine-6-carboxylic acid 2,2-dimethyl-[1,3]dioxolan-4-ylmethyl ester] | > 100 µM | ≤ 300 nM |
| N#Cc1c(NC(=O)CCc2ccccc2)sc2c1CCN(C(=O)OCC(O)CO)C2 (stereo not drawn) [Example 31, 3-Cyano-2-(3-phenyl-propanoylamino)-4,7-dihydro-5H-thieno[2,3-c]pyridine-6-carboxylic acid 2,3-dihydroxy-propyl ester] | > 100 µM | ≤ 300 nM |
| CCOC(=O)N1CCc2c(sc(NC(=O)CCc3cccc4c3OCO4)c2C#N)C1 [Example 32, 2-(3-Benzo[1,3]dioxol-4-yl-propanoylamino)-3-cyano-4,7-dihydro-5H-thieno[2,3-c]pyridine-6-carboxylic acid ethyl ester] | > 100 µM | ≤ 300 nM |
| CCOC(=O)N1CCc2c(sc(NC(=O)CCc3cccc4c3OC(F)(F)O4)c2C#N)C1 [Example 33, 3-Cyano-2-[3-(2,2-difluoro-benzo[1,3]dioxol-4-yl)-propanoylamino]-4,7-dihydro-5H-thieno[2,3-c]pyridine-6-carboxylic acid ethyl ester] | > 100 µM | 300 to 2000 nM |
| CCOC(=O)N1CCc2c(sc(NC(=O)CCc3cccc4c3OCCO4)c2C#N)C1 [Example 34, 3-Cyano-2-(3-2,3-dihydro-benzo[1,4]dioxin-5-yl-propanoylamino)-4,7-dihydro-5H-thieno[2,3-c]pyridine-6-carboxylic acid ethyl ester] | > 100 µM | 300 to 2000 nM |
| CCOC(=O)N1CCc2c(sc(NC(=O)CCc3cncnc3)c2C#N)C1 [Example 35, 3-Cyano-2-(3-pyrimidin-5-yl-propanoylamino)-4,7-dihydro-5H-thieno[2,3-c]pyridine-6-carboxylic acid ethyl ester] | ≥ 40 µM | 300 to 2000 nM |
| CCOC(=O)N1CCc2c(sc(NC(=O)CCc3ccccn3)c2C#N)C1 [Example 36, 3-Cyano-2-(3-pyridin-2-yl-propanoylamino)-4,7-dihydro-5H-thieno[2,3-c]pyridine-6-carboxylic acid ethyl ester] | > 100 µM | ≤ 300 nM |
| COCCOC(=O)N1CCc2c(sc(NC(=O)CCc3cccnc3)c2C#N)C1 [Example 37, 3-Cyano-2-(3-pyridin-3-yl-propanoylamino)-4,7-dihydro-5H-thieno[2,3-c]pyridine-6-carboxylic acid 2-methoxy-ethyl ester] | ≥ 40 µM | 300 to 2000 nM |
| N#Cc1c(NC(=O)CCc2cccnc2)sc2c1CCN(C(=O)OCc1ccccn1)C2 [Example 38, 3-Cyano-2-(3-pyridin-3-yl-propanoylamino)-4,7-dihydro-5H-thieno[2,3-c]pyridine-6-carboxylic acid pyridin-2-ylmethyl ester] | > 100 µM | 300 to 2000 nM |
| N#Cc1c(NC(=O)CCc2cccnc2)sc2c1CCN(C(=O)OCc1cccnc1)C2 [Example 39, 3-Cyano-2-(3-pyridin-3-yl-propanoylamino)-4,7-dihydro-5H-thieno[2,3-c]pyridine-6-carboxylic acid pyridin-3-ylmethyl ester] | > 100 µM | 300 to 2000 nM |
| N#Cc1c(NC(=O)CCc2cccnc2)sc2c1CCN(C(=O)OCc1ccncc1)C2 [Example 40, 3-Cyano-2-(3-pyridin-3-yl-propanoylamino)-4,7-dihydro-5H-thieno[2,3-c]pyridine-6-carboxylic acid pyridin-4-ylmethyl ester] | ≥ 40 µM | 300 to 2000 nM |
| COCCOC(=O)N1CCc2c(sc(NC(=O)CCc3ccco3)c2C#N)C1 [Example 41, 3-Cyano-2-(3-furan-2-yl-propanoylamino)-4,7-dihydro-5H-thieno[2,3-c]pyridine-6-carboxylic acid 2-methoxy-ethyl ester] | > 100 µM | ≤ 300 nM |
| N#Cc1c(NC(=O)CCc2ccco2)sc2c1CCN(C(=O)OCc1ccccn1)C2 [Example 42, 3-Cyano-2-(3-furan-2-yl-propanoylamino)-4,7-dihydro-5H-thieno[2,3-c]pyridine-6-carboxylic acid pyridin-2-ylmethyl ester] | > 100 µM | ≤ 300 nM |
| N#Cc1c(NC(=O)CCc2ccco2)sc2c1CCN(C(=O)OCc1cccnc1)C2 [Example 43, 3-Cyano-2-(3-furan-2-yl-propanoylamino)-4,7-dihydro-5H-thieno[2,3-c]pyridine-6-carboxylic acid pyridin-3-ylmethyl ester] | > 100 µM | ≤ 300 nM |
| N#Cc1c(NC(=O)CCc2ccco2)sc2c1CCN(C(=O)OCc1ccncc1)C2 [Example 44, 3-Cyano-2-(3-furan-2-yl-propanoylamino)-4,7-dihydro-5H-thieno[2,3-c]pyridine-6-carboxylic acid pyridin-4-ylmethyl ester] | > 100 µM | ≤ 300 nM |
| N#Cc1c(NC(=O)CCc2ccco2)sc2c1CCN(C(=O)OCCc1ccccn1)C2 [Example 45, 3-Cyano-2-(3-furan-2-yl-propanoylamino)-4,7-dihydro-5H-thieno[2,3-c]pyridine-6-carboxylic acid 2-pyridin-2-yl-ethyl ester] | > 100 µM | ≤ 300 nM |
| N#Cc1c(NC(=O)CCc2cccnc2)sc2c1CCN(C(=O)OCCc1ccccn1)C2 [Example 46, 3-Cyano-2-(3-pyridin-3-yl-propanoylamino)-4,7-dihydro-5H-thieno[2,3-c]pyridine-6-carboxylic acid 2-pyridin-2-yl-ethyl ester] | > 100 µM | 300 to 2000 nM |
